Experimental data as given in patent publication US20260063623A1, “METHODS OF ASSESSING METABOLIC FLUX” (The Regents of the University of Michigan, priority 2022, published 2026).
Read-outs that look alike come from different tables or passages of the source.

What was measured:
[1] = tested on: de novo GMP synthesis (IMPDH); assay: Machine learning prediction of de novo GMP synthesis ratio in MMF treated vs control GBM PDXs infused with U13C glucose; format: in vivo; details: MMF treated GBM PDX mice vs control PDXs, from measured enrichment patterns
Description: To generate data used for flux modeling, patient-derived xenografts (PDXs) from human glioblastomas are implanted into the brains of immunodeficient mice. PDXs are transduced with luciferase and EGFP prior for imaging and physical separation from brain tissue, respectively. Once brain tumors are established, mice are cannulated for infusions, treatments, and blood sampling. One catheter is surgically placed into the jugular vein of anesthetized recipient mice, and a second line is placed into the carotid artery. In experiments in which mice are to receive oral administration of MMF or vehicle, a third catheter is directed to the stomach. […] Brain tumors are separated from healthy brain tissue by fluorescence-guided microdissection. […] Small molecules from solid tissues and plasma are extracted and samples are analyzed by liquid chromatography-mass spectrometry (LC-MS) to identify the metabolites and their labeling patterns (FIG. 1A).
To train machine learning models that can predict the ratio of de novo synthesis of GMP to the overall GMP synthesis, simulated MIDs were used as input features. […] A machine learning model with a good evaluation score on a test dataset should be also evaluated on some experimental value for further validation. […] By measuring the MIDs in these two groups, the de novo GMP ratio can be calculated using the INST-MFA method and compared to machine learning results. […]

[2] = tested on: inosine monophosphate dehydrogenase (IMPDH); details: mice models, combined with radiation; cited from earlier work
[3] = human, in vivo
Experimental: Eight patients with suspected GBM were recruited to the IRB-approved clinical study, which was performed perioperatively with standard-of-care craniotomies. Near the start of each procedure (approximately 2-4 hours prior to tissue resection), patients received a bolus intravenous dose of [U^13C]-glucose (8 g) followed by a continuous intravenous infusion of [U^13C]-glucose at a rate of 4 g/h. Arterial blood was collected into EDTA-coated vials every 30-60 min for plasma preparation and analysis until solid tissues of interest were harvested from each patient. […]
(§1) Flash-frozen tissue samples were homogenized in cold (−80° C.) 80% methanol. […] Isotope labeling was determined using an Agilent system consisting of an Infinity Lab II UPLC coupled with a 6545 QTOF mass spectrometer (Agilent Technologies, Santa Clara, CA), and data were analyzed with values corrected for natural isotope abundance using MassHunter Profinder 10.0. […] To determine relative metabolite abundances in tissues and plasma from control or Ser/Gly (−) diet fed mice, samples were prepared as described above and then analyzed with an Agilent 1290 Infinity II LC-6470 Triple Quadrupole tandem mass spectrometer system (Agilent Technologies, Santa Clara, CA). For compound optimization, calibration, and data acquisition, Agilent MassHunter Quantitative Analysis Software version B.08.02 was used.

[4] = set-up: species or system mice; details: mouse, in vivo
Description: At approximately 1-2 weeks before expected death related to brain tumors (˜3 weeks post-implant), intracranial GBM-bearing mice underwent dual catheterizations, with one catheter surgically placed into the jugular vein (for [U^13C]-glucose administration) and a second catheter placed into the carotid artery (for plasma collection during infusion). Mice were then allowed to recover from surgery for 4-5 days. In studies assessing the influence of RT on metabolism, cannulated mice were anesthetized by 2% isoflurane inhalation and then treated with cranially directed RT at a dose of 8 Gy or sham RT with a lead shield keeping the cranium […]. […]
as §1, with “For compound optimization, calibration, and data acquisition, Agilent MassHunter Quantitative Analysis Software version B.08.02 was used.” left out

Row | Compound | de novo GMP synthesis ratio (de novo to overall GMP synthesis) predicted by machine learning model [1] | radiation outcomes [2] | time to arterial steady state of labeled glucose [3] | time to arterial steady state of labeled glucose [4] [min]
1 | COc1c(C)c2c(c(O)c1C/C=C(\C)CCC(=O)OCCN1CCOCC1)C(=O)OC2 [MMF, mycophenolate mofetil] | lower de novo GMP synthesis ratio | improves radiation outcomes |  | 
2 | [U^13C]-glucose |  |  | approximately 30 minutes | ≤ 30
